Data from patent US20240252463A1, “METHODS OF TREATING FIBROTIC PATHOLOGIES” (Mayo Foundation for Medical Education and Research, priority 2018, published 2024).

Experiments:
YAP/TAZ [1] = experiment: YAP/TAZ nuclear localization in IMR-90 and other mesenchymal cells (cardiac, dermal fibroblasts, hepatic stellate cells); format: cell-based, human; conditions: FIG. 37B
YAP/TAZ [2] = experiment: as above; format: cell-based, human
Method: FIGS. 2A-2E Dopamine Receptor D1 agonism blocks YAP/TAZ nuclear localization. 2a. Selective agonists of dopamine receptor D1 with varying efficacy inhibit YAP/TAZ nuclear localization; this effect can be overcome by treatment with a DRD1 receptor antagonist (SCH 39166, 3 μM), (Dihydrexidine, 10 μM). IMR-90 cells treated 2 hours prior to fixation. N=4 (****p<0.0001 vs. 0.1% DMSO vehicle control). Scale bar represents 100 μm. 2b. Consistent with DRD1 expression, DHX inhibits YAP/TAZ only in fibroblasts (IPF-FBs) but not in epithelial (NHEpCs) or endothelial (NHMVECs) cells. N=4 (****p<0.0001 vs. 0.1% DMSO vehicle control) 2c. YAP/TAZ localization is induced through multiple ligands which stimulate receptors coupled to Galphαi/q/12, endothelin 1 (ET-1: 100 nM), lysophosphatidic acid (LPA: 10 μM), and serotonin (5-HT: 1 μM). In each case DHX treatment (10 μM) can reverse this effect on YAP/TAZ. IMR-90 cells plated densely onto plastic cell culture plates for 24 hours in media containing 0.1% FBS, treated for 2 hours prior to fixation. N=4 (****p<0.0001 vs. 0.1% DMSO vehicle control), (++++p<0.0001 vs. the respective stimulated agonist ET-1, LPA, or 5-HT). Scale bar represents 100 μm. 2d. cAMP measured in IPF patient-derived fibroblasts treated for 20 minutes with DHX (10 μM)+/−SCH 39166 (3 μM). N=3 (**p<0.01 vs. 0.1% DMSO vehicle control). 2e. Phosphorylation of YAP by Rho-kinase inhibitor Y27632 (20 μM), direct cAMP stimulator Forskolin (10 μM), or DHX (10 μM). IMR-90 cells cultured for 24 hours in media containing 0.1% FBS, treated 2 hours prior to fixation. N=3 (***p<0.001 vs. 0.1% DMSO vehicle control).
FIGS. 6A-6C DHX inhibits YAP/TAZ localization in fibroblasts from multiple tissues. 6a. Mesenchymal cells derived from lung (IMR-90 and IPF-FBs) hepatic stellate cells (HSC), human adult cardiac fibroblasts, (HACF) and human dermal fibroblasts (HDF) were plated densely (Confluent) or sparsely (Control and all remaining conditions) onto plastic cell culture plates for 24 hours in media containing 0.1% FBS, treated for 2 hours with Rho kinase inhibitor Y27632, adenylate cyclase activator forskolin and DHX. N=4, Cells that were positive for nuclear YAP/TAZ were quantified by automated image analysis. 6b. Time course for DHX inhibition of YAP/TAZ nuclear localization. IMR-90 cells, N=3 (***p<0.001 vs. 0.1% DMSO vehicle control). 6c. […] N=3.
ImmunofluorescenceMicroscopy: Cells were plated into 96 well plates (Corning 3603) in their specific growth media and allowed to attach (8 hours). Media was then exchanged for the indicated conditions for each experiment. Cells were fixed in 3.7% formalin (Sigma-Aldrich), permeabilized in 0.25% Triton X-100 (Sigma-Aldrich) and then blocked with 1% BSA for 1 h. Cells or tissue sections were incubated overnight with mouse monoclonal antibody against αSMA (Sigma-Aldrich F3777), and/or a rabbit monoclonal antibody against YAP/TAZ (Cell Signaling D24E4) diluted 1:200 in PBS with 1% BSA. Cells were then washed and exposed to flourescence-conjugated secondary antibodies (Invitrogen) diluted 1:1000 and DAPI (Thermo Fisher Scientific). Images were taken with a Cytation5 (BioTek) microscope. For scoring αSMA positive cells (FIG. 3b), an observer blinded to the treatment conditions counted αSMA-positive cells using a visual threshold for bright fibrous staining; a minimum of 200 cells was counted for each condition. YAP/TAZ localization was quantified (FIG. 2, 6, 8) using Gen5 (Biotek) software. Images were taken at 4× magnification of both DAPI and YAP/TAZ staining. […] Quantification of double positive (YAP/TAZ and αSMA) cells from lung tissue sections (FIG. 4d) was performed similarly; however separate thresholds were established for both YAP/TAZ and αSMA. A minimum of 4000 cells was quantified for each mouse.

[3] = test system: bile duct ligation mediated hepatic fibrosis; experiment: Bile Duct Ligation model of liver fibrosis; format: in vivo, mouse; conditions: BDL mice, DHX 5 mg/kg i.p. daily from Day 7 for 14 days
Method: Bile Duct Ligation: BDL was performed as previously described. Briefly, 8-10 weak old female C57BL/6N underwent either BDL or sham surgery. Mice were anesthetized on Day 0 following IACUC protocol, and the bile duct was ligated using sterile 3/0 silk ligatures. Sham surgery was performed by passing a silk ligature under the bile duct. Starting on Day 7, DHX (5 mg/kg) or vehicle control was administered everyday intraperitoneally (i.p.) for 14 days. Following the final DHX treatment, mice were sacrificed and the livers harvested for analysis of fibrosis.
Histological Scoring: Five μm thick sections were cut from Paraffin embedded lung tissues, and the sections were stained either with hematoxylin and eosin (H&E) or with Masson's Trichrome stain kit (Abcam). […] The severity of interstitial and peribronchiolar lung immature and mature fibrosis was estimated on a numerical scale according to Ashcroft et al. For scoring purposes, all H&E stained slides were systematically scanned at 100× magnification and successive 100× fields were scored. […] The predominant score for each field was recorded. The mean of all scores was calculated for each case. Liver trichrome stained sections were computationally measured using Image J software. […]
Hydroxyproline: Hydroxyproline content was measured using a hydroxyproline assay kit (Biovision) according to the manufacture's instruction with slight modification. […]

Question: Which results are given for `Oc1cc2c(cc1O)[C@H]1c3ccccc3CN[C@@H]1CC2` (racemic) [Dihydrexidine, dihydrexidine]?
Answer: YAP/TAZ nuclear localization in mesenchymal cells derived from uterine fibroids (YAP/TAZ [1]): marginal inhibition of YAP/TAZ nuclear localization; potency of inhibition of YAP/TAZ nuclear localization, normal lung fibroblasts vs IPF-derived (YAP/TAZ [2]; FIG. 6c): equally potent; YAP/TAZ nuclear localization across a panel of mesenchymal cell types (YAP/TAZ [2]; cardiac and dermal fibroblasts and hepatic stellate cells (FIG. 6)): effective at inhibiting YAP/TAZ nuclear localization; YAP/TAZ nuclear localization induced by endothelin-1, lysophosphatidic acid and serotonin (YAP/TAZ [2]; confluent IMR-90, DHX 10 μM, 2 hours (FIG. 2c)): blocked nuclear localization of YAP/TAZ; YAP/TAZ nuclear localization (YAP/TAZ [2]; fibroblasts on stiff matrix (plastic), IMR-90 cells treated 2 hours (FIG. 2a)): reduced nuclear localization of YAP/TAZ; collagen deposition (hydroxyproline) [3]: trend toward reduced collagen deposition; histological fibrosis (trichrome) [3]: significantly improved histological fibrosis
